From article PMC10653776, “New dammarane-type triterpenoids from hydrolyzate of total Gynostemma pentaphyllum saponins with protein tyrosine phosphatase 1B inhibitory activity” (Journal of Enzyme Inhibition and Medicinal Chemistry, 2023)

Assays:
PTP1B [1] = target: T1, PTP1B (Homo sapiens, UniProt P18031); test: PTP1B inhibition assay (pNPP colorimetric method); format: biochemical; parameters: purchased Abcam (Shanghai) Trading Co., Ltd. ab51277; settings: for IC50: pNPP substrate, 37 °C 30 min, means ± SD of three replications; for PTP1B inhibitory activity (in words): pNPP method, compared with positive control NaVO4
T1 sequence (P18031 1-435): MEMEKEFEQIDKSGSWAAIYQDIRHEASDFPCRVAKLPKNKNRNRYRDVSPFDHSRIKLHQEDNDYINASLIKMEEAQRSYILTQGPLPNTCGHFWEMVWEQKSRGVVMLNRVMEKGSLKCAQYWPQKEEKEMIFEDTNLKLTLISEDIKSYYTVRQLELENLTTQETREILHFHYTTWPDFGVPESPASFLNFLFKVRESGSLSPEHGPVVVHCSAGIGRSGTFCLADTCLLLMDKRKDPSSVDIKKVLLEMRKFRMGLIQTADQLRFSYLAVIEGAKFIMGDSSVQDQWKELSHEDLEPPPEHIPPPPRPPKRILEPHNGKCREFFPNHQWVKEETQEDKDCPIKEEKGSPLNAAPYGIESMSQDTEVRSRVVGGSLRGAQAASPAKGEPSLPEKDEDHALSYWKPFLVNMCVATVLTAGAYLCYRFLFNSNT
Experimental: In the separation process, the column chromatography as performed by silica-gel (100–200 and 300–400 mesh, Qingdao Marine Chemical Co., Qingdao, China), and Sephadex LH-20 (GE Healthcare, Marlborough, MA). The TLC detection was carried by heating a silica gel plate (Qingdao Marine Chemical Co., Qingdao, China) spayed with 10% H2SO4 in ethanol. The 1D and 2D NMR spectra were recorded on a Varian INOVA AS 400 instrument (Agilent, Santa Clara, USA) with TMS as the internal standard. The chemical shift was shown in ppm while coupling constant J in Hz. Deuterated solvent ([…]) was purchased from Sigma Aldrich for NMR analysis. HR-ESI-MS data were collected by a UPLC–Q/TOF-MS system including a 1290 Infinity II UPLC system (Agilent, USA) and an Agilent 6545 Q/TOF-MS system (Agilent, MA, USA). Optical rotations were measured by a JASCO P-1020 polarimeter (Kyoto, Japan). The single crystal X-ray diffraction data were obtained by a SuperNova, Dual, Cu at zero, AtlasS2 diffractometer (Rigaku, Japan). Besides, other analytical grade chemical solvent was obtained from Jinhuada Chemical Co., ltd. Guangzhou, P.R. China. Recombinant human PTP1B protein (ab51277) was purchased from Abcam (Shanghai) Trading Co., Ltd. All chemical reagents used in the enzymatic assays were produced by Laibo Chemicals Industries, Ltd.
The enzymatic assays of protein tyrosine phosphatase 1B (PTP1B) were referred. The PTP1B inhibitory activities of test compounds were examined in 96-well plates using the colorimetric method. […] The reaction system was 100 μL: MOPS (25 mM, pH = 7.0), DTT (2 mM), EDTA (1 mM, pH = 7.0), NaCl (0.1 M), PTP 1B (25 nM), and disodium-4-nitrophenyl phosphate (pNPP, 2 mM), and the enzyme-catalysed reaction was terminated by the addition of 1.0 M NaOH after incubation at 37 °C for 30 min. The inhibition efficiency of the compounds on the enzymatic activity of PTP1B was assayed by detecting the amount of the hydrolysed product, p-nitrophenol (p-NP) at 405 nm using a microplate reader. The PTP1B inhibition activity was expressed as inhibition (%) and was calculated as Equation (1): (1) Inhibition (%)=(1−ΔAsample/ΔAcontrol)×100%

PTP1B [2] = target: T1, PTP1B; test: PTP1B inhibition kinetic assay (Lineweaver-Burk and Dixon plots); format: biochemical; settings: for Ki: Dixon plot method, means ± SD of three replications; for type of inhibition against PTP1B: Lineweaver-Burk double reciprocal plot
Experimental: The kinetic behaviour of the active compounds against PTP1B and the corresponding inhibition constants (Ki values) were investigated using Lineweaver-Burk double reciprocal plots and Dixon plots. Different concentrations of p-NPP substrates (1, 2, 5 and 10 mM) were subjected to enzymatic reactions with various concentrations of active compounds (0, 0.5, 1.0 and 5.0 μM for 18) and 100 nM PTP1B in 96-well plates. The absorbance of the reaction mixture was recorded every 3 min by a plate reader. The enzymatic velocity of the enzyme reaction was calculated based on the time-Δabs plot. All assays were performed in triplicate.

Row | Structure (SMILES) | IC50 (PTP1B [1]) [µM] | PTP1B inhibitory activity (in words) (PTP1B [1]) | Ki (PTP1B [2]) [µM] | type of inhibition against PTP1B (PTP1B [2])
1 | CC(C)=C1CC([C@H]2CC[C@]3(C)[C@@H]2CCC2[C@@]4(C)CC[C@H](O)C(C)(C)C4CC[C@]23C)=CC1=O (stereo partly shown) [Compound 2, Gypensapogenin II] | 10.5 ± 1.07 | more inhibitory activity against PTP1B than the positive control |  | 
2 | CC(C)=CCC[C@@](O)(C(=O)O)[C@H]1CC[C@]2(C)[C@@H]1CCC1[C@@]3(C)CC[C@H](O)C(C)(C)C3CC[C@]12C (stereo partly shown) [Compound 3, Gypensapogenin III] | 2.34 ± 0.24 | more inhibitory activity against PTP1B than the positive control | 1.16 ± 0.47 | competitive inhibitors
3 | CC(C)(O)CC(=O)CC(C(=O)O)[C@H]1CC[C@]2(C)[C@@H]1CCC1[C@@]3(C)CC[C@H](O)C(C)(C)C3CC[C@]12C (stereo partly shown) [Compound 4, Gypensapogenin IV] | 4.26 ± 0.42 | more inhibitory activity against PTP1B than the positive control | 2.44 ± 0.09 | competitive inhibitors
4 | CC(C)=CC(=O)CC(C(=O)O)[C@H]1CC[C@]2(C)[C@@H]1CCC1[C@@]3(C)CC[C@H](O)C(C)(C)C3CC[C@]12C (stereo partly shown) [Compound 5, Gypensapogenin V] | 33.9 ± 0.83 |  |  | 
5 | CC(C)=C[C@H]1C=C([C@H]2CC[C@]3(C)[C@@H]2CC[C@@H]2[C@@]4(C)CC[C@H](O)C(C)(C)[C@@H]4CC[C@]23C)C(=O)O1 [Compound 9, Gypensapogenin D] | 7.77 ± 0.85 | more inhibitory activity against PTP1B than the positive control | 5.58 ± 0.7 | competitive inhibitors

Second part, led by results:

Row | IC50 (PTP1B [1]) [µM] | Structure (SMILES) | PTP1B inhibitory activity (in words) (PTP1B [1]) | Ki (PTP1B [2]) [µM] | type of inhibition against PTP1B (PTP1B [2])
6 | 20.3 ± 2.49 | CC1(C)CCC=C(C(=O)C2CCC3(C)C2CCC2C4=C(CCC23C)C(C)(C)C2CCC4O2)O1 (stereo not shown) [Compound 1, Gypensapogenin I] |  |  | 
7 | 19.6 ± 1.48 | CC(C)=C1CC=C([C@H]2CC[C@]3(C)[C@@H]2CC[C@@H]2C4=C(CC[C@]23C)C(C)(C)[C@@H]2CC[C@H]4O2)C1=O [Compound 6, Gypensapogenin A] |  |  | 
8 | 29.4 ± 2.48 | CC(C)=C1CC([C@H]2CC[C@]3(C)[C@@H]2CC[C@@H]2C4=C(CC[C@]23C)C(C)(C)[C@@H]2CC[C@H]4O2)=CC1=O [Compound 7, Gypensapogenin B] |  |  | 
9 | 24.6 ± 2.28 | CC(C)=C1CC=C([C@H]2CC[C@]3(C)[C@@H]2CC[C@@H]2[C@@]4(C)CC[C@H](O)C(C)(C)[C@@H]4CC[C@]23C)C1=O [Compound 8, Gypensapogenin C] |  |  | 
